# Measured values: patent US9657071B2, “IgE peptide vaccine” (NIPPON ZENYAKU KOGYO CO., LTD., priority 2012, dated 2017)
# How the values were obtained:
# [1] = system: Dermatophagoides farinae antigen-specific IgE; assay: Treatment experiment, artificially sensitized dogs: Dermatophagoides farinae antigen-specific IgE (ELISA); format: in vivo, dog; conditions: artificially sensitized beagles, s.c. 1 mg five times; one individual (04-95) of 4
# Method: Dog: 8 artificially sensitized beagles (1 to 8 years old; 4 males and 4 females) were used. The ages and numbers of these 8 dogs were as follows:
# Artificial sensitization: 400 μg of a Dermatophagoides farinae antigen (GREER) and 1 mg of an alum adjuvant (LSL) were subcutaneously administered at a 2-week interval, and IgE against the Dermatophagoides farinae antigen was confirmed by ELISA.
# Grouping: on the basis of the ELISA results of IgE, the dogs were divided into 2 groups each involving 4 individuals uniformly distributed in terms of their IgE levels and ages.
# Vaccine: the M4-7-11 peptide was used alone without being conjugated.
# Administration method: 1 mg (500 μL of 2 mg/mL) per dose was subcutaneously administered five times at 2-week intervals.
# Evaluation: serum was collected, and an IgG antibody against human IgE was assayed by ELISA. […] The IgE antibody against Dermatophagoides farinae was evaluated by ELISA.
# The Dermatophagoides farinae antigen was prepared at 5 μg/mL in an immobilization buffer (0.05 M carbonate buffer, pH 9.6), then added at a concentration of 100 μL/well to an ELISA plate, and left overnight at 4° C. […] Then, the measurement was performed using a plate reader (Bio-Rad Laboratories, Inc.; model 680) (dual: measurement: 450 nm, control: 570 nm).
# dog IgE = assay: Reactivity of serum of peptide-immunized rabbit with dog IgE (ELISA); format: in vivo; conditions: 500 μg peptide + complete adjuvant s.c.
# Method: (§1) 2 mL of the 250 μg/mL peptide (a total of 500 μg) used in Example 2 was mixed with an equal amount of a complete adjuvant (a total of 4 mL). Each rabbit was immunized with this mixture by the subcutaneous administration (amount of the peptide: 500 μg) at day 0 and weeks 2, 4, 6, and 8. Blood was collected 5 weeks after the week-8 administration (week 13 counted from day 0). Booster immunization was performed at week 14 counted from day 0, and blood was further collected 2 weeks thereafter (week 16 counted from day 0). Antibody titers in the collected blood were measured by ELISA. The serum of a rabbit that received no peptide was used as a control.
# (§2) ELISA was performed by the following method: each […] recombinant CH3 solution of dog IgE, human IgE, mouse IgE, dog IgG, and cat IgE was immobilized at a concentration of 100 μL/well (100 ng/well) to a plate. The serum collected from the immunized rabbit was used (×200 to ×102400) as a primary antibody. An enzyme-labeled anti-rabbit IgG antibody (Zymed Laboratories Inc.) was used as a secondary antibody.
# dog IgG = assay: Reactivity of serum of peptide-immunized rabbit with dog IgG (ELISA); format: in vivo; conditions: 500 μg peptide + complete adjuvant s.c.
# Method: as §1, §2
# Sequence of dog IgE (as listed by the source): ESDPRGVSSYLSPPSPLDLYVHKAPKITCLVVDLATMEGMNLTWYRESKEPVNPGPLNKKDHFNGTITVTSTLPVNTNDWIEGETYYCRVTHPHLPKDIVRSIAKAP
Sequence,serum concentration of Dermatophagoides farinae antigen-specific IgE [1],response of immobilized dog IgE to peptide-administered rabbit serum (dog IgE),response of immobilized dog IgG to peptide-administered rabbit serum (dog IgG)
KKTSVSASQWYTKHHNNATT (listed as Mus musculus) [M4-7-11],reduction in the serum concentration of IgE was confirmed in one individual,,
QEKKTSVSASQWYTKHHNNATTSIT (listed as Mus musculus) [MOUSE CH3-4-17-11],,responded,responded to neither
